Data from article PMC10057977, “Use of In Vivo Imaging and Physiologically-Based Kinetic Modelling to Predict Hepatic Transporter Mediated Drug–Drug Interactions in Rats” (Pharmaceutics, 2023).
Like-named read-outs stand apart in the source and are kept apart here.

Tests used:
OATP1B1 = test system: OATP1B1; parameters: method as in earlier work; conditions: in vitro, bracket not explained in the table, ref 30,43-55 and in-house data from Merck & Co., cited from earlier work
NTCP = test system: NTCP; parameters: method as in earlier work; conditions: in vitro; ref 30,43-55 and in-house data from Merck & Co.; cited from earlier work
[1] = cited from earlier work
[2] = parameters: method as in supplement [28]; conditions: rat; 30 min after 3 mg/kg ketoconazole IV; ref supplement [28]; cited from earlier work
rMrp2 = rMrp2 (Rattus norvegicus, UniProt Q63120); assay type: in vivo; parameters: from tissue; host or cells: liver of living male Wistar rats (Charles River Laboratories); conditions: ketoconazole 3 mg/kg iv
Chain of rMrp2 (Q63120 whole entry): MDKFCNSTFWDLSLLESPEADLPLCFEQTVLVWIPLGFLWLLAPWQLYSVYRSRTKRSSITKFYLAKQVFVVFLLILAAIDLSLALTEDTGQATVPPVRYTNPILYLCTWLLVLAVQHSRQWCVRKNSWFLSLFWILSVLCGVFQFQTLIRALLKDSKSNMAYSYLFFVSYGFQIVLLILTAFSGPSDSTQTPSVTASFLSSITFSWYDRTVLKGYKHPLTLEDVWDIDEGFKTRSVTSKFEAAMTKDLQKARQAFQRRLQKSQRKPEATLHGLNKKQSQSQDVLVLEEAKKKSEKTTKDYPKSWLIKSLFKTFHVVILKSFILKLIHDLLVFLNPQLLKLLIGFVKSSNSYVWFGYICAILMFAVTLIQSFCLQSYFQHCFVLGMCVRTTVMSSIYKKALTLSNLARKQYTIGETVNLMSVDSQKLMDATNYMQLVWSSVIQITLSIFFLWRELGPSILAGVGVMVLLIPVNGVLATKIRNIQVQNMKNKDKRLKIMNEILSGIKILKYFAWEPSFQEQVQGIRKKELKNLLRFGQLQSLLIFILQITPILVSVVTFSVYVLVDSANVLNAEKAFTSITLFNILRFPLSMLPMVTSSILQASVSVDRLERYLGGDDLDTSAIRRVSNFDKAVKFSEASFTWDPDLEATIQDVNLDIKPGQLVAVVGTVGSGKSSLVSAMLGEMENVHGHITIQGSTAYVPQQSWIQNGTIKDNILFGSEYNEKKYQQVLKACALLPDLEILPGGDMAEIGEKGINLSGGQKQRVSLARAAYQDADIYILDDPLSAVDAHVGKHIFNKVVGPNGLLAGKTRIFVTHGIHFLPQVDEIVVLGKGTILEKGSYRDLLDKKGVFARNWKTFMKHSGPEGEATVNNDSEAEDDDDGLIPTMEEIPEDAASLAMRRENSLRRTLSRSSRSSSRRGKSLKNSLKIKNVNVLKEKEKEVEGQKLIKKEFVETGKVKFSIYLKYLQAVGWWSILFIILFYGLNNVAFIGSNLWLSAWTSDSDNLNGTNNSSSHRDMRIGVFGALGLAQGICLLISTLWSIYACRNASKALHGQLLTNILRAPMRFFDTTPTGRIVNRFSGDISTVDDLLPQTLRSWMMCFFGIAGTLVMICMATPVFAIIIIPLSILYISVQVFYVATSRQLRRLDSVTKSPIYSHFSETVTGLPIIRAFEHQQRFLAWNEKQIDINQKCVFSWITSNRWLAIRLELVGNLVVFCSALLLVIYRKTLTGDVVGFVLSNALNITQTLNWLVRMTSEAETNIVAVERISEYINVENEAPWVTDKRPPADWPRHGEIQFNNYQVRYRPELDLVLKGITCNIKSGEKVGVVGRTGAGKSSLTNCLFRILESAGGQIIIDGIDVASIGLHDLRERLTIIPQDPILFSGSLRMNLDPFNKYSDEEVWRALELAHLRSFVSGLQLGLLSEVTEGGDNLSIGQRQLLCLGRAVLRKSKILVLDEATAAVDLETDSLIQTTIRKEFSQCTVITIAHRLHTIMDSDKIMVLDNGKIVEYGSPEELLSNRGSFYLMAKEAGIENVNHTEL
Source text: The tracer-kinetic model was developed to enable estimation of rate constants of hepatobiliary efflux from DCE-MRI profiles in individual animals. In this approach, the liver was assumed to consist of two compartments, the extracellular space (e) and the hepatocytes (h). Since water exchanges rapidly between those spaces, the change in relaxation rate was a weighted average (Equation (4)). (4) ΔR1(t)=r1,e·ve·ce(t)+r1,h·vh·ch(t)
The proportionality constant, r1,τ [L⋅mmol^−1⋅s^−1] , is the relaxivity of the contrast agent for the compartment τ (extracellular space, e or hepatocytes, h) at the respective field strength, while vτ [mL/mL tissue] is the volume fraction of the compartment τ . Previously measured ex vivo r1,tau values for gadoxetate were used in this work, as per. The underlying assumptions of the PBPK and tracer-kinetic models, relating to physiological volumes and perfusion, are consistent, despite different parameterizations according to the purpose of each model. For example, Vliv,extr in the PBPK model is defined as an absolute volume (units = L; sum of liver plasma and interstitial volumes), while in the tracer-kinetic model, ve is a volume fraction (dimensionless), defined as Vliv,extr/Vliver , where Vliver is the total liver volume. While some analogy can be drawn between CLactive […], and CLbiliary and kbh, the interpretations are distinct. For example, the operating concentrations of the PBPK parameters CLactive […], and CLbiliary are the unbound concentrations of gadoxetate in plasma and hepatocytes, while the tracer-kinetic model is parameterized with respect to the total concentration of gadoxetate.
Since ce(t) is the input to the hepatocytes, and no backflux from hepatocytes to extracellular space is assumed, Equation (5) can be derived. (5) vh·ch(t)=e^−t/Th∗khe·ce(t) where Th is the mean transit time of gadoxetate in the hepatocytes [min] , and * is convolution. The extracellular space is assumed to be in equilibrium with the blood pool and therefore the concentration ce(t) is proportional to the concentration cp(t) in the plasma of the feeding artery, i.e., ce(t) = (1 − E)·cp(t), where E is the extraction fraction of gadoxetate in the liver. Combining this assumption with Equations (4) and (5), and using (1 − E)·khe = E·Fp, with Fp being the apparent plasma flow into the liver [mL/min/mL tissue volume] , gives Equation (6), the operational equation for gadoxetate DCE-MRI in the liver. (6) ΔR1(t)=(1−E)·ve·r1,p·cp(t)+E·Fp·r1,h ·e^−t/Th ∗cp(t)
The rate constants were derived as K^trans = E·Fp, khe = E·Fp/(1 − E), and kbh = vh/Th, with a literature value for vh. The plasma concentrations cp(t) were not reliably measured in small animals due to the small diameter of the main vessels compared to the resolution of the measurement. […] Therefore, the source term cp(t) was derived from a two-compartment pharmacokinetic model for gadoxetate (see Supplementary Material, Section S5), and a step function as input in the blood compartment. The parameters kbh and khe were fitted to the liver data using a model implementation in Python. For each rat considered in these studies, the rate constants K^trans, khe, and kbh were calculated, in both control and inhibitory phases. The rate constants of the control and inhibitory phases were compared via calculation of simple (unstandardized) effect sizes (i.e., simple effect size = μcontrol − μtreatment, where μ is the mean average of all subjects) at the 95% confidence level. Statistical significance was assessed through a two-sided paired t-test, with p < 0.05 considered significant.

MRP2 = conditions: in vitro; bracket not explained in the table; ref 30,43-55 and in-house data from Merck & Co.; cited from earlier work
[3] = Drug plasma concentrations in humans at therapeutic dosing; assay type: in vivo; conditions: ketoconazole plasma exposure, human
OATP1B3 = test system: OATP1B3; parameters: method as in earlier work; conditions: in vitro; ref 30,43-55 and in-house data from Merck & Co.; cited from earlier work

- Simple Effect Size (95% CI) kbh (rMrp2; gadoxetate biliary efflux, control − treatment, positive = decrease, site D): 0.02 (−0.02, 0.06) mL/min/mL liver
- change in gadoxetate kbh vs control (rMrp2; rat, p = 0.39): no significant changes
- unbound Cmax [3]: ~ 0.07 µM
SMILES: CC(=O)N1CCN(c2ccc(OCC3COC(Cn4ccnc4)(c4ccc(Cl)cc4Cl)O3)cc2)CC1 (stereo not shown) [Ketoconazole]
- IC50 (OATP1B1): 15.4 µM
- Ki (OATP1B1): 50.7 µM
- IC50 (OATP1B1; listed as ketoconazole): > 2 µM
- IC50 (NTCP): 202 µM
- Cmax ([1]; human plasma, daily dose 200 mg (ketoconazole), read-out: Cmax (µM) [Daily Dose]): 6.6 µM
- clinical Ctrough ([1]; human, ref supplement [29]): 0.2 µM
- Cmax ([1]; human, ref supplement [29], read-out: clinical Cmax): 7 µM
- plasma concentration [2]: 4 µM
- IC50 (MRP2): > 20 µM
- IC50 (OATP1B3): 3.9 µM
